The test system of assay [1] is vector-expressing myeloid progenitor cells. Conditions: mice, human DHFR variant (Zhao et al. 1994); cited from earlier work.
Assay [2] concerns human myeloid progenitor cells. To be noted: in vitro, MTX-containing cultures, human DHFR variant (Flasshove et al. 1995); cited from earlier work.
Assay [3] relates to murine myeloid progenitors. Description: Defined in vitro liquid culture of unseparated murine bone marrow, myeloid progenitor assay after four days. Type of assay: cell-based, mice. To be noted: TMTX 150 nM; for sensitization of progenitor cells to TMTX: TTI at 1.0 μM or 0.1 μM, 0.1 μM or 1 μM thymidine. The method, then:
FIGS. 1a & 1b a show TTIs effectively block nucleoside salvage and potentiate TMTX toxicity at physiological concentrations of thyrnidine. Unseparated bone marrow from normal C57B1/6 or WBBF1+/+ mice were cultured in DMEM plus dialyzed FBS with or without 150 nM TMTX, […] hypoxanthine and 0.1, 1.0 or 10 μM thymidine. In addition, either A) NBMPR or B) draflazine at 0.1 or 1.0 μM were added to the indicated suspension cultures. Progenitors were assayed by a semisolid methylcellulose-based myeloid progenitor assay after four days of suspension culture.
We developed a defined in vitro liquid culture system to determine the mechanism by which murine myeloid progenitors escape killing with TMTX. This system involves the culture of unseparated murine bone marrow in medium supplemented with optimal concentrations of hematopoietic growth factors (IL-3 at 20 ng/ml, human IL-6 at 50 ng/ml, rat SCF at 50 ng/ml), and either undialyzed fetal bovine serum (FBS) or dialyzed FBS at 15% v/v final concentration, that has been depleted of detectable thymidine and hypoxanthine. The progenitor content is determined four days after culture initiation.
The number of progenitors in cultures without TMTX were similar using either dialyzed or undialyzed serum. However, TMTX addition (150 nM) allowed survival of at least 50% of the myeloid progenitors in cultures containing undialyzed serum compared to 5% progenitor survival in cultures containing dialyzed serum.
Thymidine transport inhibitors (TTI) were added to our defined liquid culture system. […] However, supraphysiological thymidine levels (10 μM) were able to overcome the TTI-specific blockage of thymidine import, restoring full progenitor survival.

Assay [4] concerns murine myeloid progenitors. Put plainly: In vivo treatment of normal mice; bone marrow cellularity and myeloid progenitor content per femur. Conditions: for marrow cellularity / number of myeloid progenitors in the marrow: ip five consecutive days, 24 hrs after last treatment, TMTX 130 mg/kg, NBMPR-P 20 mg/kg, draflazine 20 mg/kg, alone or combined; for number of myeloid progenitors in the marrow: relative to untreated control mice. The method, then: FIGS. 3a & 3b show thymidine transport inhibitors sensitize murine progenitors to TMTX in vivo Normal C57B1/6, WBBF1+/+ or B6.C-H1^6/By (HW80) mice were administered TMTX (130 mg/kg), NBMPR-P (20 mg/kg) or draflazine (20 mg/kg) alone, or the combination of TMTX+NBMPR-P or TMTX+draflazine ip for five consecutive days. 24 hrs following the last treatment, mice were sacrificed and bone marrow cellularity and myeloid progenitor content per femur were analyzed relative to untreated mice.
To determine if the antifolate trimetrexate (TMTX), could be used to inhibit hematopoietic progenitor cells which had not been genetically modified to contain and express a mutant dihydrofolate reductase, we treated mice with high doses of TMTX and measured the myeloid progenitor and stem cell content in the bone marrow. Mice were intraperitoneally administered 100 or 130 mg/kg TMTX for five consecutive days. Bone marrow cellularity and progenitor content was examined relative to untreated mice 24 hrs after the final treatment. […] Thus, although differentiated murine hematopoietic cells are highly sensitive to TMTX in vivo, immature myeloid progenitors resist it's cytotoxic effects.
In order to determine whether the combination of TMTX and TTIs will kill murine myeloid progenitors in vivo, normal mice were intraperitoneally administered TMTX (130 mg/kg) together with either NBMPR-5′ monophosphate (NBMPR-P) (20 mg/kg) or draflazine (20 mg/kg) for five consecutive days. […] The myeloid progenitor content in the marrow was also measured following these various treatments. […] Thus, while TMTX alone is insufficient for the killing of myeloid progenitors in vivo, either draflazine or NBMPR-P can be used to sensitize progenitors to TMTX thereby allowing elimination of unmodified cells in vivo.

The subject of assay [5] is human myeloid progenitor cells. Description: L22Y-DHFR or neo transduced human peripheral blood progenitors plated in semisolid media with TMTX. Type of assay: cell-based. To be noted: mobilized human peripheral blood progenitors, L22Y-DHFR versus neo transduced, TMTX 0 to 500 ng/ml in semisolid media.
Procedure: Peripheral blood cells collected following chemotherapy and growth factor mobilization were prestimulated for 48 hrs with IL-3, IL-6 and SCF, followed by coculture on irradiated amphotropic retroviral producers (L22Y-DHFR or neo) for an additional 48 hrs. Nonadherent hematopoietic cells were then assayed for drug resistant progenitors by addition of increasing concentrations of TMTX to the semisolid methylcellulose cultures.
Human progenitor cells were transduced as follows. Mononuclear cells were isolated by passing peripheral blood cells over a Ficoll gradient. These cells were cultured at 5×10^5 cells/ml in the presence of human IL-3 at 20 ng/ml, human IL-6 at 50 ng/ml, and human SCF at 50 ng/ml and 15% v/v fetal calf serum. After 48 hours, these cells were placed on plates containing an irradiated confluent layer of fibroblasts that were producing the amphotropic L22Y vector. The cytokine concentrations during this coculture period were identical to that used during the previous prestimulation phase. Protamine sulfate was also included during the coculture phase at a concentration of 4 μg/ml. After 48 hours of coculture, cells were washed and plated in semisolid media obtained from Stem Cell Technologies according to manufacturers specifications. This media was pretreated with thymidine phosphorylase at 1 unit/3 ml of media. […]
In the next assay the test system is hematopoietic stem cells. Put plainly: Stem cell kill: marrow of treated C57B1/6J donors transplanted into W/Wv mice, hemoglobin electrophoresis. Type of assay: in vivo. Conditions: donors given five daily doses of TMTX at 100 mg/kg/day. The method, then:
C57B1/6 donor mice were administered either 100 mg/kg TMTX, 100 mg/kg TMTX+20 mg/kg NBMPR-P, or 130 mg/kg TMTX+20 mg/kg NBMPR-P ip for five consecutive days. 24 hrs following the last treatment, bone marrow was harvested and transplanted into genetically anemic W/W^V mice. The hemoglobin phenotype of transplanted mnice was determined after 8 weeks.
The above experiments indicate that the combination of an antifolate (TMTX) and TTIs effectively eliminates unmodified myeloid progenitors. Although selection at the progenitor level should be useful in a number of circumstances, selection at the level of repopulating stem cells should give the most durable and stable selection of vectormodified cells. To test if the combination of TMTX and NBMPR-P could be used to kill unmodified stem cells, C57B1/6J mice were treated with various drug combinations (intraperitoneal injections at the following doses: trimetrexate at 130 mg/kg, NBMPR-P at 20 mg/kg, and draflazine at 20 mg/kg) and then used as donors for bone marrow transplantation. Stem cell viability was measured by hemoglobin electrophoresis patterns in W/Wv mice used as transplant recipients. […]
Repopulation can be monitored by hemoglobin electrophoresis, which can distinguish the pattern obtained from C57B1/6J erthryocytes versus the W/Wv background.

Assay [6] relates to human CD34 immunoselected progenitors. Description: Human CD34-enriched peripheral blood progenitors in defined liquid culture. In kind it is cell-based. To be noted: 1.0 μM draflazine, 150 nM trimetrexate, 100 μM hypoxanthine, thymidine 0 to 1.0 micromolar, dialyzed serum. The method, then:
CD34-enriched, mobilized peripheral blood progenitors were assayed in the defined suspension culture system, as described for murine cells in the legend to FIG. 1. Two separate human samples were examined, and progenitor survival is represented relative to progenitors cultured without TMTX.
We examined the ability of draflazine to potentiate TMTX toxicity of human CD34 immunoselected progenitors in our defined liquid culture system comprising 15% dialyzed fetal calf serum, 20 ng/ml human IL-3, 50 ng/ml human IL-6, and 50 ng/ml human SCF in the presence-or absence of 1.0 μM draflazine, 100 μM hypoxanthine, 150 nM trimetrexate, and varying concentrations of thymidine ranging from 0 to 1.0 micromolar. […] CD34 selection was done using a Ceprate cell column (CellPro) according to the manufacturers instructions.

Regarding `CN(Cc1cnc2nc(N)nc(N)c2n1)c1ccc(C(=O)N[C@@H](CCC(=O)O)C(=O)O)cc1` [MTX, methotrexate], the “increase in vector-expressing myeloid progenitor cells following MTX treatment” value in assay [1] is listed as 2 fold. The “amplification of vector-expressing progenitor cells” value in assay [2] was “amplified two-fold”.
For the molecule `O=[N+]([O-])c1ccc(CSc2ncnc3c2ncn3[C@@H]2O[C@H](CO)[C@@H](O)[C@H]2O)cc1` [NBMPR, nitrobenzylmercaptopurine riboside], the “sensitization of progenitor cells to TMTX” value in assay [3] is recorded as “effectively sensitized progenitor cells to TMTX”.
As for `O=[N+]([O-])c1ccc(CSc2ncnc3c2ncn3[C@@H]2O[C@H](COP(=O)(O)O)[C@@H](O)[C@H]2O)cc1` [NBMPR-P, NBMPR-5′ monophosphate], in assay [4], the marrow cellularity entry was “neither TTI alone had any measurable effect” and the “number of myeloid progenitors in the marrow” value (“number … in the marrow” for short) is “no effect on progenitor survival”.
For the molecule `COc1cc(NCc2ccc3nc(N)nc(N)c3c2C)cc(OC)c1OC` [TMTX, trimetrexate], the “TMTX resistance of L22Y-DHFR transduced progenitors” value in assay [5] is “increased TMTX-resistance relative to control (neo) transduced progenitor cells”. The “hematopoietic repopulating ability of donor marrow” value with hematopoietic stem cells was “failed to adversely effect”. Further, the “rescue of myeloid progenitors from TMTX toxicity” value in assay [3] (dialyzed serum treated with thymidine phosphorylase, hypoxanthine 100 μM alone added) is given as “did not rescue myeloid progenitors from TMTX toxicity”. Moreover, in assay [3] (dialyzed serum, both thymidine and hypoxanthine added), the myeloid progenitor survival entry is “fully restored myeloid progenitor survival”. For the same molecule, the progenitor survival in assay [3] (dialyzed serum, four days) stood at 5%. Moreover, in assay [3] (dialyzed serum, thymidine 1.0 μM alone added), the “restoration of TMTX resistance of progenitors” value is on record as “did not restore TMTX resistance”. Also, in assay [3] (undialyzed serum, four days), the “survival of myeloid progenitors” value is given as “at least 50%”. In assay [4] (TMTX 100 or 130 mg/kg ip for five consecutive days, 24 hrs after final treatment), the “number of myeloid progenitors and stem cells per femur” value is given as “remained the same in all groups of mice”. For the same molecule, the bone marrow cellularity result in assay [4] (TMTX 100 or 130 mg/kg ip for five consecutive days, 24 hrs after final treatment, relative to untreated mice) is recorded as “severe marrow hypoplasia”. Further, the “number … in the marrow” value in assay [4] is recorded as “modest increase”.
Regarding `NC(=O)C1CN(CCCCC(c2ccc(F)cc2)c2ccc(F)cc2)CCN1CC(=O)Nc1c(Cl)cc(N)cc1Cl` (stereo not shown) [draflazine], the “potentiation of TMTX toxicity” value in assay [6] is “effectively potentiated TMTX toxicity”. In addition, the “sensitization of progenitor cells to TMTX” value in assay [3] was “effectively sensitized progenitor cells to TMTX”. Further, in assay [4], the marrow cellularity result is listed as “neither TTI alone had any measurable effect” and the “number … in the marrow” value is recorded as “no effect on progenitor survival”.

Source of the values: patent US6500421B1, “In vivo selection of primitive hematopoietic cells” (St. Jude Children's Research Hospital, priority 1999, dated 2002).
